# Assay results: ChEMBL document CHEMBL1212743, “Absorption, pharmacokinetics, and safety of triclosan after dermal administration” (Antimicrob Agents Chemother, 2010)
# Key:
# Type in all cases: ADME, organism-based
# Homo sapiens = experiment: Time to reach maximum urine excretion rate in percutaneously dosed healthy human at 1166 mg; settings: in vivo, topical_or_ocular
# [1] = Absorption in percutaneously dosed healthy human at 1166 mg; settings: in vivo, topical or ocular, read-out: Activity
# [2] = Apparent half-life of the terminal disposition phase half life in percutaneously dosed healthy human at 1166 mg; settings: in vivo, topical or ocular, read-out: t1/2 lambda z (converted)
# [3] = Excretion in percutaneously dosed healthy human urine at 1166 mg up to 48 hrs; settings: topical or ocular, read-out: Activity
structure (smiles),measurement,setting,value
Oc1cc(Cl)ccc1Oc1ccc(Cl)cc1Cl [TRICLOSAN],Time,Homo sapiens,11 h
same,Fa,[1],5.9%
same,half-life,[2],10.8 h
same,dose excreted at 48 h,[3],4.9%
